Measurements published in patent US20060111305A1, “Metabolites of certain [1,4]diazepino[6,7,1-ij]quinoline derivatives and methods of preparation and use thereof” (Wyeth, priority 2004, published 2006).
Read-outs that look alike come from different tables or passages of the source.

Experiments:
Assay type in all cases: in vivo, beagle dogs
[1] = Dog plasma metabolite profiles after single 15 mg/kg oral capsule of [14C]DCDQ
Experimental: (§1) For plasma profiles, a TopCount NXT radiometric microplate reader (Perkin Elmer) was used to analyze the radioactivity in collected HPLC fractions. The limit of detection by TopCount was about 1 ng equivalent/mL. A Flo-One β Model A525 radioactivity detector (Perkin Elmer) with a 250 μL LQTR flow cell was used to acquire data for urine and fecal samples. The flow rate of Ultima Flow M scintillation fluid was 1 mL/min, providing a mixing ratio of scintillation cocktail to mobile phase of 5:1. The limits of detection by Flo-One detector were about 200 ng equivalents/mL for urine and 12 ng equivalents/g for feces.
Plasma samples were analyzed for metabolite profiles by HPLC. Aliquots of plasma were mixed with two volumes of cold methanol containing 0.1% trifluoroacetic acid (TFA), placed on ice for about 2 minutes and then centrifuged. The supernatant fluid was transferred to a clean tube and evaporated at 22° C. under nitrogen in a Zymark TurboVap LV (Caliper Life Sciences, Hopkinton, Mass.) to a volume of about 0.3 mL. The residue was centrifuged, the supernatant volume measured and extraction efficiency determined by analysis of duplicate 20 μL aliquots for radioactivity. A 200 μL aliquot of the supernatant was injected onto the HPLC column and the effluent was collected at 20 second intervals into 96-well Lumaplates (Perkin Elmer). The plates were dried overnight in an oven at 40° C. and analyzed by a TopCount. Plasma extracts were also analyzed by LC/MS.
(§2) A Waters model 2690 HPLC system (Waters Corp., Milford, Mass.) with a built-in autosampler was used for analysis. Separations were accomplished on a Phenomenex Luna C18(2) column (150×2.0 mm, 5 μm) (Phenomenex, Torrance, Calif.). The sample chamber of the autosampler was maintained at 4° C., while the column was at ambient temperature of about 20° C. A variable wavelength UV detector set to monitor 250 nm and a Flo-One β Model A525 radioactivity detector were used for data acquisition. The HPLC mobile phase consisted of 10 mM ammonium acetate, pH 4.5 (A) and acetonitrile (B), and was delivered at 0.2 mL/min. Chromatographic condition A was used for dose analysis, while condition B was used for analysis of urine and plasma, brain and fecal extracts.

[2] = Dog urinary excretion and metabolite profiles after oral capsule of [14C]DCDQ
Experimental: Blood samples were collected from the jugular vein at 2, 4, 8, 24 and 48 hour after dose administration into tubes containing potassium EDTA as the anticoagulant and then placed on ice. Aliquots of 50 μL were removed for combustion and determination of radioactivity content. Plasma was immediately obtained from the remaining blood by centrifugation at 4° C. Urine samples were collected into tubes on dry ice at intervals of 0-8, 8-24 and 24-48 hour post-dose. Fecal samples were collected at intervals of 0-8, 8-24 and 24-48 hour post-dose at room temperature, and were homogenized. The biological specimens were stored at approximately −70° C. until analysis.
as §1
Urine was analyzed for radioactivity concentration and analyzed by HPLC with radioactivity flow detection for metabolite profiles by direct injection to the HPLC column. LC/MS analyses for metabolite identification were also carried out with urine samples.
as §2

[3] = Metabolites of DCDQ identified in dogs by LC/MS analysis (Table 26); details: P = plasma, U = urine, B = brain, F = feces
Source text: An Agilent Model 1100 HPLC system (Agilent Technologies, Palo Alto, Calif.) including an autosampler and diode array UV detector was used for LC/MS analysis. The UV detector was set to monitor 200 to 400 nm. For selected LC/MS analysis, radiochromatograms were acquired using a β-Ram model 3 radioactivity flow detector (IN/US Systems Inc., Tampa, Fla.) equipped with a solid scintillant flow cell. LC conditions were the same as the condition B described above.
The mass spectrometer used for metabolite characterization was a Micromass Q-TOF-2 quadrupole time-of-flight hybrid mass spectrometer (Waters). The mass spectrometer was equipped with an electrospray ionization (ESI) interface and operated in the positive ionization mode. Collision energy settings of 5 and 30 eV were used for full MS and MS/MS scans, respectively. Settings for the mass spectrometer are listed below.

[4] = male, beagle, dog, plasma, oral, 15 mg/kg, 4 hr, dog 2, read-out: Estimated plasma concentration in dogs
[5] = male, beagle, dog, plasma, oral, 15 mg/kg, 24 hr, dog 1, read-out: Estimated plasma concentration in dogs
[6] = male, beagle, dog, plasma, oral, 15 mg/kg, 24 hr, dog 2, read-out: Estimated plasma concentration in dogs

Estimated plasma concentration in dogs ([1]; 2 hr, dog 1)	Chromatographic distribution of radioactivity in dog plasma ([1]; 4 hr, dog 2) [%]	Estimated plasma concentration in dogs ([1]; 8 hr, dog 2)	Estimated plasma concentration in dogs ([1]; 8 hr, dog 3)	Chromatographic distribution of radioactivity in dog plasma ([1]; 24 hr, dog 1) [%]	Chromatographic distribution of radioactivity in dog plasma ([1]; 24 hr, dog 2) [%]	Estimated plasma concentration in dogs ([1]; 24 hr, dog 3)	Estimated plasma concentration in dogs ([1]; 48 hr, dog 1)	Estimated plasma concentration in dogs ([1]; 48 hr, dog 2)	Estimated plasma concentration in dogs ([1]; 48 hr, dog 3)	concentration at 4 h [1, 4] [ng/mL]	concentration at 24 h [1, 5] [ng/mL]	concentration at 24 h [1, 6] [ng/mL]	Chromatographic distribution of radioactivity in dog urine ([2]; 24-48 hr, Mean) [%]	Chromatographic distribution of radioactivity in dog urine ([2]; 24-48 hr, dog 1) [%]	Chromatographic distribution of radioactivity in dog urine ([2]; 24-48 hr, dog 2) [%]	Chromatographic distribution of radioactivity in dog urine ([2]; 24-48 hr, dog 3) [%]	Chromatographic distribution of radioactivity in dog urine ([2]; 24-48 hr, dog 4) [%]	Matrix [3]	Structure (SMILES)	further results
BQL	13	BQL	BQL	17	5.6	BQL	BQL	BQL	BQL	215	258	62.1	4.7	5.8	3.5	4.3	5.9	P, U	O=C(O)[C@H]1O[C@@H](OC(=O)N2CCN3C[C@@H]4CCC[C@@H]4c4cccc(c43)C2)[C@H](O)[C@@H](O)[C@@H]1O [Metabolite M6, carbamoyl glucuronide of DCDQ]	Chromatographic distribution of radioactivity in dog plasma ([1]; 2 hr, dog 2): 19%; Estimated plasma concentration in dogs ([1]; 4 hr, dog 1): BQL; Chromatographic distribution of radioactivity in dog plasma ([1]; 8 hr, dog 1): 7.0%; concentration at 2 h ([1]; male, beagle, dog, plasma, oral, 15 mg/kg, 2 hr, dog 2, read-out: Estimated plasma concentration in dogs): 239 ng/mL; concentration at 8 h ([1]; male, beagle, dog, plasma, oral, 15 mg/kg, 8 hr, dog 1, read-out: Estimated plasma concentration in dogs): 37.9 ng/mL; Chromatographic distribution of radioactivity in dog urine ([2]; 0-8 hr, dog no. not printed (dog 1 by footnote a)): 13%; Chromatographic distribution of radioactivity in dog urine ([2]; 8-24 hr, Mean): 5.8%; Chromatographic distribution of radioactivity in dog urine ([2]; 8-24 hr, dog 1): 6.1%; Chromatographic distribution of radioactivity in dog urine ([2]; 8-24 hr, dog 2): 7.6%; Chromatographic distribution of radioactivity in dog urine ([2]; 8-24 hr, dog 3): 3.6%
BQL	7.8	BQL	BQL	13	6.7	BQL	BQL	BQL	BQL	127	202	73.6	5.9	5.0	6.2	9.2	3.4	P, U	O=C1CC[C@@H]2c3cccc4c3N(CCNC4)C[C@H]12 [Metabolite M7, 17-keto DCDQ]	Estimated plasma concentration in dogs ([1]; 2 hr, dog 2): BQL; Chromatographic distribution of radioactivity in dog plasma ([1]; 4 hr, dog 1): 6.9%; Estimated plasma concentration in dogs ([1]; 8 hr, dog 1): BQL; concentration at 4 h ([1]; male, beagle, dog, plasma, oral, 15 mg/kg, 4 hr, dog 1, read-out: Estimated plasma concentration in dogs): 34.5 ng/mL
